Values joined by “and” are separate entries in the source; they are usually repeats but may differ in a detail not shown here. Identical values can stand only once. Toxic doses and inconclusive results are not listed. The calls were made as follows: active = survival T/C of 150% or more; inactive = T/C below 125% in these data.
System: CD2F1 mice, L1210 leukemia ip, survival T/C
Experiment: NCI In Vivo Anticancer Drug Screen. Data for tumor model L1210 Leukemia (intraperitoneal) in CD2F1 (CDF1) mice
Settings: higher = longer survival
Outline: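 Transplantable tumor in mice; compound-treated vs vehicle-treated groups. Read-out = treated/control ratio of the measured endpoint.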

[1] = endpoint: mean survival time, dose: 100.0 mg/kg/injection, schedule: Q01DX001 (ip), vehicle: saline with Tween-80
[2] = endpoint: mean survival time, dose: 200.0 mg/kg/injection, schedule: Q01DX001 (ip), vehicle: saline with Tween-80
[3] = endpoint: mean survival time, dose: 400.0 mg/kg/injection, schedule: Q01DX001 (ip), vehicle: saline with Tween-80
[4] = endpoint: mean survival time, dose: 100.0 mg/kg/injection, schedule: Q01DX009 (ip), vehicle: saline
[5] = endpoint: mean survival time, dose: 200.0 mg/kg/injection, schedule: Q01DX009 (ip), vehicle: saline
[6] = endpoint: mean survival time, dose: 400.0 mg/kg/injection, schedule: Q01DX009 (ip), vehicle: saline
[7] = endpoint: mean survival time, dose: 100.0 mg/kg/injection, schedule: Q01DX009 (ip), vehicle: saline with Tween-80
[8] = endpoint: mean survival time, dose: 100.0 mg/kg/injection, schedule: Q04DX003 (ip), vehicle: saline with Tween-80
[9] = endpoint: mean survival time, dose: 200.0 mg/kg/injection, schedule: Q01DX009 (ip), vehicle: saline with Tween-80
[10] = endpoint: mean survival time, dose: 200.0 mg/kg/injection, schedule: Q04DX003 (ip), vehicle: saline with Tween-80
[11] = endpoint: mean survival time, dose: 400.0 mg/kg/injection, schedule: Q01DX009 (ip), vehicle: saline with Tween-80
[12] = endpoint: mean survival time, dose: 400.0 mg/kg/injection, schedule: Q04DX003 (ip), vehicle: saline with Tween-80
[13] = endpoint: mean survival time, dose: 12.5 mg/kg/injection, schedule: Q01DX009 (ip), vehicle: saline with Tween-80
[14] = endpoint: mean survival time, dose: 25.0 mg/kg/injection, schedule: Q01DX009 (ip), vehicle: saline with Tween-80

Measured: T/C

OC1COC(c2cnn(-c3ccccc3)n2)C1O (stereo not drawn)
inactive: endpoint: median survival time, dose: 12.5 mg/kg/injection, schedule: Q01DX005 (ip), vehicle: water 105 % of control and 110 % of control | endpoint: median survival time, dose: 25.0 mg/kg/injection, schedule: Q01DX005 (ip), vehicle: water 103 % of control | endpoint: median survival time, dose: 50.0 mg/kg/injection, schedule: Q01DX005 (ip), vehicle: water 105 % of control and 103 % of control | endpoint: median survival time, dose: 100.0 mg/kg/injection, schedule: Q01DX005 (ip), vehicle: water 103 % of control and 104 % of control | endpoint: median survival time, dose: 200.0 mg/kg/injection, schedule: Q01DX005 (ip), vehicle: water 100 % of control and 103 % of control | endpoint: median survival time, dose: 400.0 mg/kg/injection, schedule: Q01DX005 (ip), vehicle: water 107 % of control

O=C1OC2CCC(Br)CC2C=C1C1CCC([N+](=O)[O-])CC1 (stereo not drawn)
inactive: endpoint: mean survival time, dose: 100.0 mg/kg/injection, schedule: Q04DX002 (ip), vehicle: saline with Tween-80 108 % of control | endpoint: mean survival time, dose: 200.0 mg/kg/injection, schedule: Q04DX002 (ip), vehicle: saline with Tween-80 100 % of control | endpoint: mean survival time, dose: 400.0 mg/kg/injection, schedule: Q04DX002 (ip), vehicle: saline with Tween-80 89 % of control

COc1cccc2c1C(=O)c1c(OC)cccc1C2=O
inactive: endpoint: mean survival time, dose: 25.0 mg/kg/injection, schedule: Q01DX005 (ip), vehicle: other 104 % of control | endpoint: mean survival time, dose: 50.0 mg/kg/injection, schedule: Q01DX005 (ip), vehicle: other 101 % of control | endpoint: mean survival time, dose: 100.0 mg/kg/injection, schedule: Q01DX005 (ip), vehicle: other 101 % of control | endpoint: mean survival time, dose: 200.0 mg/kg/injection, schedule: Q01DX005 (ip), vehicle: other 97 % of control | endpoint: mean survival time, dose: 400.0 mg/kg/injection, schedule: Q01DX005 (ip), vehicle: other 93 % of control

CN(C)c1nc(N)cc(-c2ccncc2)n1
inactive: endpoint: mean survival time, dose: 100.0 mg/kg/injection, schedule: Q04DX002 (ip), vehicle: saline 96 % of control | endpoint: mean survival time, dose: 200.0 mg/kg/injection, schedule: Q04DX002 (ip), vehicle: saline 88 % of control

CCCCCCC(C)(O)CCCCCC
inactive: [1] 93 % of control | [2] 96 % of control | [3] 101 % of control

COc1ccccc1NC(=O)CSC(N)=O
inactive: endpoint: mean survival time, dose: 50.0 mg/kg/injection, schedule: Q01DX001 (ip), vehicle: saline 98 % of control | endpoint: mean survival time, dose: 100.0 mg/kg/injection, schedule: Q01DX001 (ip), vehicle: saline 97 % of control | [4] 102 % of control | endpoint: mean survival time, dose: 100.0 mg/kg/injection, schedule: Q04DX003 (ip), vehicle: saline 94 % of control | endpoint: mean survival time, dose: 200.0 mg/kg/injection, schedule: Q01DX001 (ip), vehicle: saline 103 % of control | [5] 93 % of control | endpoint: mean survival time, dose: 200.0 mg/kg/injection, schedule: Q04DX003 (ip), vehicle: saline 91 % of control | endpoint: mean survival time, dose: 400.0 mg/kg/injection, schedule: Q01DX001 (ip), vehicle: saline 97 % of control | [6] 96 % of control | endpoint: mean survival time, dose: 400.0 mg/kg/injection, schedule: Q04DX003 (ip), vehicle: saline 91 % of control

CC(NC(=O)c1cccnc1)C(=O)O (stereo not drawn)
inactive: endpoint: median survival time, dose: 25.0 mg/kg/injection, schedule: Q04DX003 (ip), vehicle: saline 105 % of control | endpoint: median survival time, dose: 50.0 mg/kg/injection, schedule: Q04DX003 (ip), vehicle: saline 115 % of control | endpoint: median survival time, dose: 100.0 mg/kg/injection, schedule: Q04DX003 (ip), vehicle: saline 94 % of control | endpoint: median survival time, dose: 200.0 mg/kg/injection, schedule: Q04DX003 (ip), vehicle: saline 94 % of control

Cc1c(C)c([N+](=O)[O-])c(Br)c(C)c1[N+](=O)[O-]
inactive: [7] 103 % of control | [8] 95 % of control | [9] 97 % of control | [10] 88 % of control | [11] 101 % of control | [12] 87 % of control

NS(=O)(=O)c1ccc(Cl)c2ccccc12
inactive: [1] 93 % of control | [2] 98 % of control

CCCCCCCCCCCCCC[n+]1ccc(C(N)=O)cc1
inactive: endpoint: mean survival time, dose: 12.5 mg/kg/injection, schedule: Q04DX003 (ip), vehicle: saline with Tween-80 107 % of control | endpoint: mean survival time, dose: 25.0 mg/kg/injection, schedule: Q04DX003 (ip), vehicle: saline with Tween-80 107 % of control

CC(CO)CCC1OC2CC3C4CCC5CC(O)CCC5(C)C4CCC3(C)C2C1C (stereo not drawn)
inactive: [1] 95 % of control | [2] 94 % of control

N=Cc1c(O)n(-c2ccccc2)c(=O)n(-c2ccccc2)c1=O
inactive: [8] 94 % of control | [10] 94 % of control | [12] 92 % of control

Nc1nc2ccc(Cl)cc2[nH]1
inactive: endpoint: mean survival time, dose: 50.0 mg/kg/injection, schedule: Q01DX009 (ip), vehicle: Klucel (hydroxypropylcellulose) (HPC) 93 % of control | endpoint: mean survival time, dose: 100.0 mg/kg/injection, schedule: Q01DX009 (ip), vehicle: Klucel (hydroxypropylcellulose) (HPC) 91 % of control

COC1OC(CCl)C(Cl)C(OC)C1OC (stereo not drawn)
inactive: [1] 96 % of control | [2] 91 % of control | [3] 87 % of control

COC(=O)CCCCC(C)=O
inactive: [7] 101 % of control | endpoint: mean survival time, dose: 100.0 mg/kg/injection, schedule: Q04DX003 (ip), vehicle: saline sonified 98 % of control | [9] 101 % of control | endpoint: mean survival time, dose: 200.0 mg/kg/injection, schedule: Q04DX003 (ip), vehicle: saline sonified 98 % of control | [11] 98 % of control | endpoint: mean survival time, dose: 400.0 mg/kg/injection, schedule: Q04DX003 (ip), vehicle: saline sonified 102 % of control

CNS(=O)(=O)c1ccc2c(c1)[nH]c(=S)n2C
inactive: [7] 97 % of control | [8] 96 % of control | [9] 93 % of control | [10] 92 % of control | [11] 93 % of control | [12] 90 % of control

Cc1cc(C)[nH]c(=O)c1
inactive: [4] 106 % of control | [5] 106 % of control | [6] 106 % of control

O=C(/C=C\C=C\c1ccc2c(c1)OCO2)N1CCCCC1
inactive: [13] 111 % of control | [14] 107 % of control | endpoint: mean survival time, dose: 50.0 mg/kg/injection, schedule: Q01DX009 (ip), vehicle: saline with Tween-80 104 % of control

COC(=O)c1cncc(C(=O)OC)c1
inactive: [7] 94 % of control | [9] 92 % of control | [11] 90 % of control

CCCCOC(=O)/C=C\C(=O)OC(C)C(=O)OCCCC (stereo not drawn)
inactive: endpoint: median survival time, dose: 50.0 mg/kg/injection, schedule: Q04DX002 (ip), vehicle: saline with Tween-80 100 % of control | endpoint: median survival time, dose: 100.0 mg/kg/injection, schedule: Q04DX002 (ip), vehicle: saline with Tween-80 100 % of control | endpoint: median survival time, dose: 200.0 mg/kg/injection, schedule: Q04DX002 (ip), vehicle: saline with Tween-80 100 % of control | endpoint: median survival time, dose: 400.0 mg/kg/injection, schedule: Q04DX002 (ip), vehicle: saline with Tween-80 88 % of control

BrC1CCCCCC12OCCO2 (stereo not drawn)
inactive: [8] 86 % of control | [10] 94 % of control | [12] 89 % of control

CC(=O)Nc1c(C)cccc1[N+](=O)[O-]
inactive: endpoint: mean survival time, dose: 25.0 mg/kg/injection, schedule: Q01DX001 (ip), vehicle: saline with Tween-80 101 % of control | endpoint: mean survival time, dose: 50.0 mg/kg/injection, schedule: Q01DX001 (ip), vehicle: saline with Tween-80 97 % of control | [1] 97 % of control

Cc1c([N+](=O)[O-])cc(C(C)(C)C)c(OC(=S)N(C)C)c1[N+](=O)[O-]
inactive: endpoint: mean survival time, dose: 6.25 mg/kg/injection, schedule: Q01DX009 (ip), vehicle: saline with Tween-80 93 % of control | [13] 95 % of control | [14] 89 % of control

COc1cccc(/C=N/C(=S)NC2(C)C3CCC(C3)C2(C)C)c1O (stereo not drawn)
inactive: endpoint: mean survival time, dose: 12.5 mg/kg/injection, schedule: Q01DX009 (ip), vehicle: olive oil, sesame oil, peanut oil 98 % of control | endpoint: mean survival time, dose: 25.0 mg/kg/injection, schedule: Q01DX009 (ip), vehicle: olive oil, sesame oil, peanut oil 96 % of control | endpoint: mean survival time, dose: 50.0 mg/kg/injection, schedule: Q01DX009 (ip), vehicle: olive oil, sesame oil, peanut oil 90 % of control | endpoint: mean survival time, dose: 100.0 mg/kg/injection, schedule: Q01DX009 (ip), vehicle: olive oil, sesame oil, peanut oil 97 % of control | endpoint: mean survival time, dose: 200.0 mg/kg/injection, schedule: Q01DX009 (ip), vehicle: olive oil, sesame oil, peanut oil 96 % of control | endpoint: mean survival time, dose: 400.0 mg/kg/injection, schedule: Q01DX009 (ip), vehicle: olive oil, sesame oil, peanut oil 90 % of control

From PubChem BioAssay AID256 (DTP/NCI, 2004)
